Earlier results, collected in patent US20110064813A1, “USE OF SALSALATE WITH OR WITHOUT CAFFEINE AND WITH OR WITHOUT OMEGA 3, AND OTHER PHARMACEUTICAL COMPOUNDS IN A DISTINCTIVELY UNIQUE NANO-PARTICULATE CAPSULE AND TABLET” (priority 2009, published 2011).

Legend:
[1] = acidic conditions
[2] = tested on: patients presenting with Type 2 Diabetes (T2D); details: tablet forms of salsalate; T2D patients and obese patients
[3] = administered orally
[4] = compared with aspirin and other NSAIDS
[5] = tested on: patients with rheumatoid arthritis; details: compared with diclofenac
pro-thrombin time = details: unlike Aspirin

O=C(Oc1ccccc1C(=O)O)c1ccccc1O [salsalate, 2-(2-Hydroxybenzoyl)oxybenzoic acid]
solubility [1]: nearly insoluble
salsalate induced liver dysfunction (HIV-infected patients; HIV patients): a significant number of HIV patients experienced salsalate induced liver dysfunction
endothelial function (HIV-infected patients; HIV-infected patients): improved endothelial function
lowering of glucose levels [2]: experienced efficacy in the lowering of glucose levels
time to full benefit (plasma salicylate steady state) [3]: 3 to 4 days
fecal gastrointestinal blood loss [4]: less fecal gastrointestinal blood loss than aspirin
clinical efficacy [5]: equal to diclofenac
inhibition of pro-thrombin time (pro-thrombin time): does not inhibit
